Here are results for eleven compounds from patent US20240252677A1, “ONE-COMPONENT DELIVERY SYSTEM FOR NUCLEIC ACIDS” (The Trustees of the University of Pennsylvania, priority 2021, published 2024).

The test system of one series is HEK293T cells. Nature of the series: In vitro Luc-mRNA transfection, luciferase luminescence expression in HEK293T cells. It is filed as cell-based, human. Set-up: unit not given here. The settings on record: Table 16; HEK 293T cells, 125 ng/well, n=3. Summed up: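 HEK293T cells were transfected with nucleoside-modified firefly luciferase mRNA at 125 ng/well delivered in the test particles. TransIT and MC3-based LNPs at equal mRNA dose served as comparators. After 24 h (18-20 h in some runs) at 37° C the cells were lysed, and luciferase luminescence was read on a luminometer, in triplicate.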

For the next series, the system named is lung. Nature of the series: In vivo mRNA delivery, IVIS imaging of organs: lung. Set-up: species or system mice; key to Organs with luminescence: lung: strong: Strong meant the luminescence intensity in that organ was relatively high, compared to other organs; weak: Weak meant the luminescence intensity in that organ was relatively low, compared to other organs. As to conditions: Table 17; mice, IVIS, 4-6 h after injection; intensity relative to other organs.

In a further series the test system is spleen. Briefly: In vivo mRNA delivery, IVIS imaging of organs: spleen. As to conditions: Table 17; mice, IVIS, 4-6 h after injection; intensity relative to other organs. Set-up: species or system mice; key to Organs with luminescence: spleen: strong: Strong meant the luminescence intensity in that organ was relatively high, compared to other organs; weak: Weak meant the luminescence intensity in that organ was relatively low, compared to other organs.

Series [1] in a line: pKa measurements of individual IAJD molecules by titration. As to conditions: ethanol saturated with NaCl, titrated with 0.1 M aqueous HCl; individual IAJD molecules, titration. The class given is physicochemical. The method, boiled down: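 pKa derived by half-equivalence-point analysis of a pH-meter titration curve: 0.1 M HCl added in 7.5 μL increments to a 1.5 mg/mL solution of each molecule in ethanol saturated with NaCl.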

The nature of series [2]: Stability of DNPs by DLS after storage at 5° C. It is filed as physicochemical. Set-up: key to Original size distribution type (DLS curve) / Size distribution type (DLS curve): U: DLS curve showed unimodal size distribution; B: DLS curve showed bimodal size distribution; M: DLS curve showed multimodal size distribution. The settings on record: for pH Sample: DNPs: IAJD 4.0 mg/mL + Luc-mRNA 0.1 mg/mL, injection in acetate buffer pH 4.00; for PDI / Size (d, nm) / Original size distribution type (DLS curve): IAJD 4.0 mg/mL + Luc-mRNA 0.1 mg/mL; for PDI / Size (d, nm): acetate buffer; for Original size distribution type (DLS curve): before storage, acetate buffer pH 4.00. The method, boiled down: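 DNPs in acetate buffer sized by DLS after storage at 5 °C. Stability ranked Excellent, Good or Not stable according to retention, shrinkage or growth of original size and narrowing or broadening of size distribution.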

Turning to `CCCCCCCCCCCCCCCOc1cc(COC(=O)CCCN2CCN(C)CC2)cc(OCCCCCCCCCC)c1` [IAJD 141, 3-(Decyloxy)-5-(pentadecyloxy)benzyl 4-(4-methylpiperazin-1-yl)butanoate], the Luminescence in the series on HEK293T cells is 140,589. In addition, the “Organs with luminescence: lung” value with lung was “Lung (weak),”. In the series on spleen, the “Organs with luminescence: spleen” value is on record as “spleen (strong)”. The pKa in series [1] worked out at 6.56. Moreover, in series [2], the “pH Sample” value was 4.62 and the “Original size distribution type (DLS curve)” value is “(U)”. Further, in series [2] (after 27 days at 5° C.), the “Size distribution type (DLS curve)” value is recorded as “(U)”; the PDI was found to be 0.286; the “Size (d, nm)” value stood at 156 nm.
Consider `CCCCCCCCCCCCCOc1cc(COC(=O)CCCN2CCN(CCO)CC2)cc(OCC(CC)CCCC)c1` (stereo not drawn) [IAJD 162, 3-((2-Ethylhexyl)oxy)-5-(tridecyloxy)benzyl 4-(4-(2-hydroxyethyl)piperazin-1-yl)butanoate], for which the Luminescence in the series on HEK293T cells was 222,235. In addition, the “Organs with luminescence: lung” value in the series with lung is listed as “Lung (weak),”. Further, the “Organs with luminescence: spleen” value with spleen was “spleen (strong)”. Besides, the pKa in series [1] was found to be 6.33. Besides, in series [2], the “pH Sample” value was 4.66 and the “Original size distribution type (DLS curve)” value is given as “(B)”. In addition, in series [2] (after 21 days at 5° C.), the “Size distribution type (DLS curve)” value is “(B)”; the PDI turned out to be 0.291; the “Size (d, nm)” value is given as 182 nm.
`CCCCCCCCCCCOc1cc(COC(=O)CCCN2CCN(CCO)CC2)cc(OCC(CC)CCCC)c1` (stereo not drawn) [IAJD 130, 3-((2-Ethylhexyl)oxy)-5-(undecyloxy)benzyl 4-(4-(2-hydroxyethyl)piperazin-1-yl)butanoate]: the Luminescence with HEK293T cells is 76,345. Moreover, the “Organs with luminescence: lung” value with lung is listed as “Lung (weak),”. Besides, the “Organs with luminescence: spleen” value in the series with spleen is given as “spleen (strong)”. The same compound yielded a pKa in series [1] of 6.62. Besides, in series [2], the “pH Sample” value is on record as 4.50 and the “Original size distribution type (DLS curve)” value is given as “(U)”. In addition, in series [2] (after 62 days at 5° C.), the “Size distribution type (DLS curve)” value was “(U)”; the PDI amounted to 0.282; the “Size (d, nm)” value was found to be 149 nm.
On to `CCCCCCCCCCCCCCCCCOc1cc(COC(=O)CCCN2CCN(C)CC2)cc(OCCCCCCCCCCC)c1` [IAJD 126, 3-(Heptadecyloxy)-5-(undecyloxy)benzyl 4-(4-methylpiperazin-1-yl)butanoate], for which, in the series with HEK293T cells, the Luminescence turned out to be 675. For the same compound, in the series on lung, the “Organs with luminescence: lung” value is reported as “Lung (weak),”. In the series with spleen, the “Organs with luminescence: spleen” value is given as “spleen (strong)”. For the same compound, in series [1], the pKa was found to be 6.52. In series [2], the “pH Sample” value was determined as 4.48 and the “Original size distribution type (DLS curve)” value is listed as “(U)”. In series [2] (after 70 days at 5° C.), the “Size distribution type (DLS curve)” value was “(U)”; the PDI is 0.239; the “Size (d, nm)” value is listed as 154 nm.
On to `CCCCCCCCCCCCCCCOc1cc(COC(=O)CCCN2CCN(C)CC2)cc(OCCCCCCCCCCCC)c1` [IAJD 143, 3-(Dodecyloxy)-5-(pentadecyloxy)benzyl 4-(4-methylpiperazin-1-yl)butanoate], for which, in the series on HEK293T cells, the Luminescence is reported as 71,851. In addition, in the series on lung, the “Organs with luminescence: lung” value was “Lung (strong),”. Moreover, in the series with spleen, the “Organs with luminescence: spleen” value is recorded as “spleen (strong)”. This compound had a pKa in series [1] of 6.33. Further, in series [2], the “pH Sample” value came to 4.48 and the “Original size distribution type (DLS curve)” value is “(U)”. Besides, in series [2] (after 27 days at 5° C.), the “Size distribution type (DLS curve)” value is “(U)”; the PDI worked out at 0.243; the “Size (d, nm)” value came to 166 nm.
Take `CCCCCCCCCCCCCCCOc1cc(COC(=O)CCCN2CCN(CCO)CC2)cc(OCCCCCCCCCCC)c1` [IAJD 119, 3-(Pentadecyloxy)-5-(undecyloxy)benzyl 4-(4-(2-hydroxyethyl)piperazin-1-yl)butanoate]: the Luminescence in the series with HEK293T cells is on record as 565,906. Further, the “Organs with luminescence: lung” value with lung is reported as “Lung (weak),”. The “Organs with luminescence: spleen” value with spleen was “spleen (strong)”. The compound further registered a pKa in series [1] of 6.44. In series [2], the “pH Sample” value worked out at 4.36 and the “Original size distribution type (DLS curve)” value is given as “(M)”. Moreover, in series [2] (after 62 days at 5° C.), the “Size distribution type (DLS curve)” value was “(B)”; the PDI is on record as 0.489; the “Size (d, nm)” value was determined as 254 nm.
Regarding `CCCCCCCCCCCOc1cc(COC(=O)CCCN2CCN(CCO)CC2)cc(OCCCCCCCCC)c1` [IAJD 122, 3-(Nonyloxy)-5-(undecyloxy)benzyl 4-(4-(2-hydroxyethyl)piperazin-1-yl)butanoate], in the series with HEK293T cells, the Luminescence is listed as 55,101. Moreover, the “Organs with luminescence: lung” value with lung is recorded as “Lung (weak),”. In addition, the “Organs with luminescence: spleen” value with spleen is “spleen (strong)”. In series [1], this compound showed a pKa of 6.66. In addition, in series [2], the “pH Sample” value was determined as 4.49 and the “Original size distribution type (DLS curve)” value is on record as “(B)”. In addition, in series [2] (after 62 days at 5° C.), the “Size distribution type (DLS curve)” value is recorded as “(B)”; the PDI was determined as 0.346; the “Size (d, nm)” value is given as 192 nm.
For the compound `CCCCCCCCCCCCCCCCOc1cc(COC(=O)CCCN2CCN(C)CC2)cc(OCCCCCCCCCCCCCCC)c1` [IAJD 149, 3-(Hexadecyloxy)-5-(pentadecyloxy)benzyl 4-(4-methylpiperazin-1-yl)butanoate], the Luminescence in the series on HEK293T cells is on record as 149,935. Moreover, the “Organs with luminescence: lung” value with lung was “Lung (weak),”. In addition, the “Organs with luminescence: spleen” value in the series on spleen was “spleen (strong)”. In series [1], this compound returned a pKa of 6.5. In addition, in series [2], the “pH Sample” value worked out at 4.50 and the “Original size distribution type (DLS curve)” value is listed as “(B)”. In series [2] (after 19 days at 5° C.), the “Size distribution type (DLS curve)” value was “(B)”; the PDI is on record as 0.291; the “Size (d, nm)” value amounted to 193 nm.
On to `CCCCCCCCCCCCOc1cc(COC(=O)CCCN2CCN(CCO)CC2)cc(OCCCCCCCCCCC)c1` [IAJD 124, 3-(Dodecyloxy)-5-(undecyloxy)benzyl 4-(4-(2-hydroxyethyl)piperazin-1-yl)butanoate], for which, in the series on HEK293T cells, the Luminescence is 145,115. Also, the “Organs with luminescence: lung” value in the series on lung is “Lung (weak),”. Besides, in the series on spleen, the “Organs with luminescence: spleen” value is “spleen (strong)”. In addition, in series [1], the pKa is 6.65. In series [2], the “pH Sample” value amounted to 4.51 and the “Original size distribution type (DLS curve)” value was “(U)”. Moreover, in series [2] (after 62 days at 5° C.), the “Size distribution type (DLS curve)” value is reported as “(B)”; the PDI was found to be 0.240; the “Size (d, nm)” value was found to be 284 nm.
Consider `CCCCCCCCCCCCCCCCCOc1cc(COC(=O)CCCN2CCN(C)CC2)cc(OCCCCCCCCCCCCCCC)c1` [IAJD 151, 3-(Heptadecyloxy)-5-(pentadecyloxy)benzyl 4-(4-methylpiperazin-1-yl)butanoate], for which, in the series on HEK293T cells, the Luminescence is 9,310. Besides, the “Organs with luminescence: lung” value with lung is reported as “Lung (weak),”. Also, the “Organs with luminescence: spleen” value in the series on spleen is listed as “spleen (strong)”. Also, in series [1], the pKa is 6.39. Besides, in series [2], the “pH Sample” value was 4.57 and the “Original size distribution type (DLS curve)” value was “(U)”. In series [2] (after 35 days at 5° C.), the “Size distribution type (DLS curve)” value is reported as “(U)”; the PDI was determined as 0.240; the “Size (d, nm)” value was 271 nm.
`CCCCCCCCCCCCCCCOc1cc(COC(=O)CCCN2CCN(CCO)CC2)cc(OCCCCCCCCCC)c1` [IAJD 142, 3-(Decyloxy)-5-(pentadecyloxy)benzyl 4-(4-(2-hydroxyethyl)piperazin-1-yl)butanoate]: the Luminescence with HEK293T cells was 463,750. The “Organs with luminescence: lung” value with lung is given as “Lung (weak),”. In addition, in the series with spleen, the “Organs with luminescence: spleen” value is “spleen (strong)”. For the same compound, the pKa in series [1] came to 6.69. Further, in series [2], the “pH Sample” value was 4.52 and the “Original size distribution type (DLS curve)” value is reported as “(B)”. Further, in series [2] (after 27 days at 5° C.), the “Size distribution type (DLS curve)” value was “(U)”; the PDI is on record as 0.266; the “Size (d, nm)” value is 214 nm.

One may read the pKa as the negative logarithm of the acid dissociation constant.
